# Read-outs that look alike come from different tables or passages of the source.
# Tests used:
# Phytophthora infestans [1] = type: in vivo
# Plasmopara viticola [2] = assay: Preventive fungicidal activity against peronospora of vines, sprayed vine leaves (Example 7); type: in vivo; settings: 7-day preventive, vine cv. Dolcetto, scale 0 (completely infected) to 100 (healthy plant); for Activity 500 ppm: 500 ppm as equivalent phosphorous acid; for Activity 1000 ppm: 1000 ppm as equivalent phosphorous acid
# Procedure: Determination of the Fungicidal Activity Against Peronospora of Vines (Plasmopara viticola).
# Vine leaves (cultivar Dolcetto), grown in vases in a conditioned environment (20±1° C., 70% relative humidity) are treated by spraying both sides of the leaves with compounds 1 and 2, dispersed in a hydroacetone solution at 20% by volume in acetone.
# After remaining 24 hours in a conditioned environment, the plants were sprayed on both sides of the leaves with an aqueous suspension of conidia of Plasmopara viticola (20,000 conidia per cm^3).
# The plants are kept in a humidity saturated environment at 21° C. for the incubation period of the fungus.
# At the end of this period (7 days), the fungicidal activity is evaluated according to an evaluation percentage scale from 0 (completely infected plant) to 100 (healthy plant).
# Phytophthora infestans [3] = settings: 1-day curative, potato Primura, scale 100 healthy to 0 infected
# Plasmopara tabacina = assay: 1-day curative fungicidal activity of fungicidal mixtures against peronospora of tobacco (Example 11); type: in vivo
# Procedure: Determination of the Fungicidal Activity of Fungicidal Mixtures Against Peronospora of Tobacco (Plasmopara tabacina).
# Leaves of tobacco plants (cultivar Barley), grown in vases in a conditioned environment (20±1° C.), 70% relative humidity) were infected with an aqueous solution of spores of Plasmopara tabacina (200,000 conidia per cm^3).
# (§1) After remaining 24 hours in a conditioned environment, both sides of the leaves were sprayed with the fungicidal mixtures under examination dissolved in a hydroacetone solution at 20% of acetone (vol./vol.).
# After drying, the plants were transferred for the incubation period of the fungus (6 days) to a conditioned environment at 70% relative humidity and 24° C.
# Plasmopara viticola [4] = assay: 1-day curative fungicidal activity of fungicidal mixtures against peronospora of vines (Example 10); type: in vivo
# Procedure: Leaves of vines (cultivar Dolcetto), grown in vases in a conditioned environment (20±1° C.), 70% relative humidity) were infected with an aqueous suspension of spores of Plasmopara viticola (200,000 conidia per cm^3).
# as §1
# After drying, the plants were transferred for the incubation period of the fungus (6 days) to a conditioned at 70% relative humidity and 24° C.
# [5] = 1575 ppm as equivalent phosphorous acid
# [6] = compound alone at 1575 ppm as equivalent phosphorous acid, 1-day curative, potato, scale 0-100
molecule,measurement,setting,value
CN(C)CCCO [3-dimethylamine-1-propanol],Activity (y),Phytophthora infestans [1]; in vivo,25
C[N+](C)(C)CCO.O=C([O-])O [Choline bicarbonate],Activity 500 ppm,Plasmopara viticola [2],75
same,Activity 1000 ppm,Plasmopara viticola [2],84
C[N+](C)(C)CCO.[Cl-] [Choline chloride],Activity 500 ppm,Plasmopara viticola [2],35
same,Activity 1000 ppm,Plasmopara viticola [2],57
same,Activity (y),"Phytophthora infestans [1]; compound alone at 2730 ppm, 1-day curative, potato, scale 0-100",20
same,Activity,Phytophthora infestans [3]; 2690 ppm (quantity of choline contained in Compound No 2),15 (2690 ppm*)
same,Activity (y),"Plasmopara tabacina; compound alone at 2047 ppm, 1-day curative, tobacco, scale 0-100",10
same,Activity (y),"Plasmopara viticola [4]; compound alone at 2047 ppm, 1-day curative, vine, scale 0-100",20
"O=[PH]([O-])[O-].[K+].[K+] [Compound K2HPO3, K2HPO3, reference compound]",Activity 500 ppm,Plasmopara viticola [2],45
same,Activity 1000 ppm,Plasmopara viticola [2],80
same,Activity,Phytophthora infestans [3]; [5],40 (1575 ppm**)
"CN(C)CCO [N,N-dimethylethanolamine]",Activity (y),Phytophthora infestans [1]; in vivo,30
same,Activity (y),Plasmopara tabacina; in vivo,5
same,Activity (y),Plasmopara viticola [4]; in vivo,25
Acid Choline Phosphite [Compound 2],Activity 500 ppm,Plasmopara viticola [2],85
same,Activity 1000 ppm,Plasmopara viticola [2],95
same,Activity (y),Phytophthora infestans [1]; [6],65
same,Activity,Phytophthora infestans [3]; [5],65 (1575 ppm**)
same,Activity,"Phytophthora infestans [3]; 1575 ppm as equivalent phosphorous acid, […]",65
Neutral Choline Phosphite [Compound 1],Activity 500 ppm,Plasmopara viticola [2],90
same,Activity 1000 ppm,Plasmopara viticola [2],100
same,Activity (y),Phytophthora infestans [1]; [6],65

# From patent US7968530B2 (priority 2005, dated 2011)
